Here are results for 13 compounds from article PMC10318132, “Synthesis and activity study of novel N,N-diphenylurea derivatives as IDO1 inhibitors” (Frontiers in Chemistry, 2023).

In one experiment the target is T1, IDO1 (Homo sapiens, UniProt P14902).
T1 construct: host or cells: HeLa cells stimulated with 100 ng/mL human IFN-γ
In words: Hela cell-based functional assay of IDO1 inhibition (kynurenine read at 480 nm). The settings on record: Hela cells, 100 ng/mL human IFN-γ, 18 h; averages ±SD of two parallel experiments. On the procedure: Based on a comprehensive review of the literature, we employed a Hela cell-based functional assay to investigate the IDO1 inhibition activities of the designed compounds.
To assess the inhibitory effect of the designed compounds against IDO1, Hela cells were seeded at 50,000–60,000 cells per well in 100 μL of complete Dulbecco’s modified eagle medium growth medium in a 96-well plate and incubated for 12–18 h. On the second day, diluted inhibitor at a final concentration of 100 ng/mL human IFN-γ was added (100 μL per well) and incubated at 37°C with 5% CO2 for 18 h. On the third day, 140 μL of medium was transferred into a new 96-well plate, and the protein was precipitated with 10 μL of 6.1 N trichloroacetic acid (CCl3COOH) at 50°C for 30 min. The plate was then centrifuged at 2,500 rpm for 10 min, and 100 μL of supernatant was transferred to another 96-well plate and mixed with 100 μL of 2% (w/v) p-dimethylaminobenzaldehyde in CH3COOH. The plate was incubated at 25°C for 10 min, and the yellow color derived from kynurenine was measured at 480 nm using a microplate reader (PE, United States). Inhibition curves with IC50 values were generated using Prism 6.0.

Experiment [1] deals with melanin-concentrating hormone. Set-up: method as in McBriar et al., 2006. The conditions noted are these: melanin-concentrating hormone antagonist; ref McBriar et al., 2006; cited from earlier work.
In another experiment the test system is Staphylococcus aureus. Further details: method as in Babu et al., 2015. The conditions noted are these: ref Babu et al., 2015; cited from earlier work.
Another experiment relates to pancreatic cancer cells. Further details: method as in Khanet al. The conditions noted are these: ref Khanet al.; cited from earlier work.
Experiment [2] deals with laryngeal squamous carcinoma cells. Set-up: method as in Khanet al. The settings on record: ref Khanet al.; cited from earlier work.
Another experiment has as its system HIV-1 protease. Further details: method as in The Lipton laboratory. The settings on record: ref The Lipton laboratory; cited from earlier work.

T1 sequence (P14902 whole entry): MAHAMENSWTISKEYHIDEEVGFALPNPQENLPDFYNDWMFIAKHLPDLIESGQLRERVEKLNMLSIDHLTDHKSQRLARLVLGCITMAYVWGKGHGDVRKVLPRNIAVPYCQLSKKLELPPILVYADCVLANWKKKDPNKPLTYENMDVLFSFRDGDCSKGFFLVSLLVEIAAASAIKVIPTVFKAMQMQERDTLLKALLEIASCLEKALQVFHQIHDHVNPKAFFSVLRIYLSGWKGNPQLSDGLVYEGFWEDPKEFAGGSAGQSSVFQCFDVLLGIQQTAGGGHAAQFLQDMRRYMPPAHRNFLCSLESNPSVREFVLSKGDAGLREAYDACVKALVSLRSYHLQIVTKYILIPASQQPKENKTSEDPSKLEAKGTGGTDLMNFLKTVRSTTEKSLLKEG

The compound `Cc1ccc(-c2csc3nnc(SCC(=O)Nc4ccc5c(c4)OCO5)n23)cc1` [Amg-1, reference compound] had an IC50 against IDO1 of 3.97 µM.
The same measure, in the same setting: under `COc1ccc(NC(=O)NCc2cn(Cc3ccccc3Br)nn2)cc1` [Compound 3a, 1-((1-(2-bromobenzyl) -1H-1,2,3-triazol-4-yl)methyl) -3-(4-methoxyphenyl) urea] stands above 20 µM; under `O=C(NCc1cn(Cc2ccccc2Br)nn1)Nc1ccc(Br)cc1` [Compound 3d, 1-((1-(2-bromobenzyl) -1H-1,2,3-triazol-4-yl)methyl) -3-(4-bromophenyl) urea], above 20 µM; under `O=C(NCc1cn(Cc2cccc(Br)c2)nn1)Nc1ccc(Br)cc1` [Compound 3e, 1-((1-(3-bromobenzyl) -1H-1,2,3-triazol-4-yl)methyl) -3-(4-bromophenyl) urea], above 20 µM.
On to `COc1ccc(NC(=O)NC(C)(C)c2cn(Cc3ccccc3Br)nn2)cc1` [Compound 3f, 1-(2-(1-(2-bromobenzyl)-1H-1,2,3-triazol-4-yl)propan-2-yl)-3-(4-methoxyphenyl)urea], for which it took 17.9 ± 3.14 µM to reach half-maximal inhibition on IDO1 (IC50).
For `COc1ccc(NC(=O)NC(C)(C)c2cn(Cc3cccc(Br)c3)nn2)cc1` [Compound 3g, 1-(2-(1-(3-bromobenzyl)-1H-1,2,3-triazol-4-yl)propan-2-yl)-3-(4-methoxyphenyl)urea], on IDO1, the IC50 turned out to be 1.73 ± 0.97 µM.
Still for that read-out and setting: next, `COc1ccc(NC(=O)NC(C)(C)c2cn(Cc3cccc(OC)c3)nn2)cc1` [Compound 3h, 1-(2-(1-(3-methoxybenzyl)-1H-1,2,3-triazol-4-yl)propan-2-yl)-3-(4-methoxyphenyl)urea]: 5.82 ± 2.65 µM.
Still for that read-out and setting: next, `CC(C)(NC(=O)Nc1ccc(Br)cc1)c1cn(Cc2ccccc2Br)nn1` [Compound 3i, 1-(2-(1-(2-bromobenzyl)-1H-1,2,3-triazol-4-yl)propan-2-yl)-3-(4-bromophenyl)urea]: above 20 µM; `CC(C)(NC(=O)Nc1ccc(Br)cc1)c1cn(Cc2cccc(Br)c2)nn1` [Compound 3j, 1-(2-(1-(3-bromobenzyl)-1H-1,2,3-triazol-4-yl)propan-2-yl)-3-(4-bromophenyl)urea]: above 20 µM.
Regarding `CN1CCN(CCCN(C(=O)Nc2ccc(F)c(C(F)(F)F)c2)[C@@H]2CC[C@]3(c4ccc(C#N)cc4)C[C@H]23)CC1` [Compound 7], in experiment [1], the “effect on body weight” value is “effective in reducing body weight”.
With `O=C(Nc1ccc(F)c(C(F)(F)F)c1)N1CCN(c2ncc3cc(-c4cccnc4F)ccc3n2)CC1` [Compound 8], the “inhibitory effect on the proliferation of Staphylococcus aureus” value with Staphylococcus aureus is reported as “excellent inhibitory effect”.
Take `CNc1ccccc1C(=O)NC(=O)Nc1ccc(Oc2ncc(Br)cn2)c(C)c1` [Compound 9]: the “repression of pancreatic cancer cells” value in the experiment on pancreatic cancer cells is “effectively repress”. In addition, the “repression of laryngeal squamous carcinoma cells” value in experiment [2] is “effectively repress”.
On to `COC(=O)C(NC(=O)C(NC(=O)C(Cc1ccccc1)NC(=O)NC(Cc1ccccc1)NC(=O)C(C)NC(=O)C(C)N)C(C)C)C(C)C` (centres unmarked) [Compound 10], for which the “inhibitory effect on HIV-1 protease” value with HIV-1 protease is reported as “moderate inhibitory effect”.

As usually defined, the IC50 is the concentration that gives 50% inhibition. Low readings indicate greater potency in that assay, high ones weaker potency in that assay.
